Tests used:
CT26 colon cancer cells = test: CT26 tumor model, intratumoral cdAMP(ps)2 formulations; format: in vivo, Balb/c mice
Experimental: When tumor size reach ˜60 mm^3, 2 doses of 25 ug/dose cdAMP(ps)2 were administrated intra-tumorally on days 10 and 15. To evaluate antigen-specific immune responses, PBMCs were collected for tetramer staining on day 17 and ELISPOT analysis with AH1 antigen peptides on day 22. […] Although CDN-Zn seemed to better inhibit tumor growth, compared with CDN and CDNs@CaP/PEI-PEG, there was no statistical difference among them. For the survival of mice after treatment, median survival time for untreated, CDN, CDN-Zn and CDNs@CaP/PEI-PEG group was 23 days, 42 days, 64 days and unreached, respectively (FIG. 4B).
All animals were cared for following federal, state, and local guidelines. All work performed on animals was in accordance with and approved by the University Committee on Use and Care of Animals (UCUCA) at University of Michigan, Ann Arbor. Female Balb/c mice of age 6-8 weeks (Jackson Laboratories) were inoculated with 1×10^5 CT26 colon cancer cells. When tumor size achieved ˜100 mm^3, 2 doses of 25 ug cdAMP(ps)2 in different formulations were administrated via intra-tumoral route on day 10 and day 15. Tumor size and survival were monitored every 2 or 3 days. Tumor size was calculated based on equation: volume=length×width^2×0.5. Animals were euthanized when the tumor reached 1.5 cm in diameter or when animals became moribund with severe weight loss or ulceration. At day 17, the percentages of tumor antigen-specific CD8α+ T cells among PBMC were analyzed using the tetramer staining assay as described previously with peptide-MHC tetramer ([…] AH1) (the NIH Tetramer Core Facility, Atlanta, GA). On day 22, ELISPOT assay was performed with PBMC from the treated mice as described previously.
All animals were cared for following federal, state, and local guidelines. All work performed on animals was in accordance with and approved by the University Committee on Use and Care of Animals (UCUCA) at University of Michigan, Ann Arbor. Female Balb/c mice of age 6-8 weeks (Jackson Laboratories) were inoculated with 1×10^5 CT26 colon cancer cells. When tumor size achieved ˜50 mm^3, indicated drugs or formulations were administrated via the indicated route. Tumor size and survival were monitored every 2 or 3 days. Tumor size was calculated based on equation: volume=length×width^2×0.5. Animals were euthanized when the tumor reached 1.5 cm in diameter or when animals became moribund with severe weight loss or un-healing ulceration. At day 17, the percentages of tumor antigen-specific CD8α+ T cells among PBMC were analyzed using the tetramer staining assay as described previously with peptide-MHC tetramer ([…] AH1) (the NIH Tetramer Core Facility, Atlanta, GA). […]
We also evaluated a subset of the formulations mentioned above in tumor-bearing mice. […]

[1] = system: THP 1 dual-KI-hSTING^WT(R232) reporter cells; test: Cellular viability of chelator-treated THP 1 dual-KI-hSTING WT(R232) reporter cells; format: cell-based, human
Description: (§1) FIGS. 18A-18F: Chelating metal ions to inhibit cGAS-STING-Type I IFN pathway. (FIG. 18A) Molecular structure of representative chelators that could inhibit cGAS-STING-Type I IFN pathway. (FIGS. 18B-18C) Dose-inhibition curves of the IFN-I response (FIG. 18B) and NF-kB inflammation response (FIG. 18C) by the indicated compounds in DNA/lipofectamine 2000 (ThermoFisher, 11668027) treated THP 1 dual-KI-hSTING^WT(R232) reporter cells (Invivogen, thpd-r232). (FIG. 18D) Cellular viability of FIGS. 18B-18C. (FIG. 18E) Dose-inhibition curves of the IFN-I response by the indicated compounds in DNA/lipofectamine 2000 (ThermoFisher, 11668027) treated THP 1-ISG hSTING^HAQ reporter cells (Invivogen, thp-isg). […]
(§2) Given the interesting function of metal ions on modulating innate immune response in our finding, we further evaluated whether chelating metal ions could inhibit the according innate immune pathways, which may be used to treat autoimmune diseases, such as Systemic lupus erythematosus, Aicardi-Goutieres syndrome, Acute pancreatitis Age-dependent macular degeneration, Alcoholic liver disease, Liver fibrosis, Metastasis, Myocardial infarction, Nonalcoholic steatohepatitis (NASH), Parkinson's disease, Polyarthritis/fetal and neonatal anemia, Sepsis, inflammatory bowel disease, multiple sclerosis, etc. […] By a ISRE induced luminescence, we could read the degree of inhibition. […]

[2] = system: cGAS-STING-Type I IFN pathway; test: Inhibition of DNA/lipofectamine-induced IFN-I response in THP 1 dual-KI-hSTING WT(R232) reporter cells; format: cell-based, human; conditions: DNA/lipofectamine complex challenging, ISRE induced luminescence
Description: as §1, §2

[3] = 2 doses of 25 ug/dose cdAMP(ps)2 intratumorally on days 10 and 15

Row | Compound | average tumor growth compared with the untreated group (CT26 colon cancer cells; [3]) | median survival time (CT26 colon cancer cells; [3]) [days] | AH1 antigen-specific T cell response (ELISPOT) (CT26 colon cancer cells; day 22, seven days after the 2nd dose) | complete tumor regression (CT26 colon cancer cells; individual tumor growth curves, 5 mice per group) | tolerability in in-vitro assay (cellular viability) [1] | IC50 of DNA-induced Type I IFN response [2]
1 | cdAMP(ps)2 [free CDN] | greatly delayed | 42 | significant AH1 antigen-specific T cell response | 2 out of 5 | – | –
2 | O=C(OC[C@H]1O[C@@H](OC(=O)c2cc(O)c(O)c(OC(=O)c3cc(O)c(O)c(O)c3)c2)[C@H](OC(=O)c2cc(O)c(O)c(OC(=O)c3cc(O)c(O)c(O)c3)c2)[C@@H](OC(=O)c2cc(O)c(O)c(OC(=O)c3cc(O)c(O)c(O)c3)c2)[C@@H]1OC(=O)c1cc(O)c(O)c(OC(=O)c2cc(O)c(O)c(O)c2)c1)c1cc(O)c(O)c(OC(=O)c2cc(O)c(O)c(O)c2)c1 [tannin acid, Tannic acid] | – | – | – | – | well-tolerated | as low as nanomolar level
3 | O=C1O[C@H]2[C@@H]3OC(=O)c4cc(O)c(O)c(O)c4-c4c(O)c(O)c5oc(=O)c6c(c(O)c(O)c7oc(=O)c4c5c76)-c4c(cc(O)c(O)c4O)C(=O)OC[C@H]3OC(O)[C@@H]2OC(=O)c2cc(O)c(O)c(O)c2-c2c1cc(O)c(O)c2O (mixture of isomers) [Punicalagin] | – | – | – | – | well-tolerated | as low as nanomolar level
